Consider ten substances from patent publication US20210213135A1 (Purdue Research Foundation, priority 2018, published 2021).

Bridges are numbered along the chain shown (N, C = ends). Primed or numbered codes have the meaning given here. Where no end group is shown, it is not given here. [ ]: non-standard residue; d: D form. mp4″ = 4 mini PEG linker (mini-PEG spacer); Dap = NC[C@H](N)C(=O)O

The test deals with Swiss Webster fracture-bearing mice (fracture callus). Put plainly: micro CT of the fracture callus in the femur fracture model. Type of test: in vivo.
The mark [1] stands for this setting: 2 weeks, 1, 10 and 100 nmol/day.
Where [2] appears, read: 4 weeks, 1, 10 and 100 nmol/day.

With “ODP D10: SEQ ID NO: 13, Osteopontin-derived peptide conjugated with 10 aspartate acids (DDDDDDDDDD[mp4″]DVDVPDGRGDSLAYG)”, the BV/TV entry (4 weeks, 1 nmol/day) was “healing was reflected as BV/TV”.

Turning to “OGP-D10: SEQ ID NO: 2, osteogenic growth peptide conjugated with 10 aspartate acids: DDDDDDDDDDALKRQGRTLYGFGG (OGP D10)”, for the setting “2 weeks, 1 and 100 nmol/day”, the BV/TV result is “dose dependent manner”, the TbSp entry is listed as “dose dependent manner” and the TbTh entry is “dose dependent manner”.

With “CNP D10: SEQ ID NO: 7, C-type Natriuretic peptide conjugated with 10 aspartate acids (HDDDDDDDDDDGLSKGCFGLKLDRIGSMSGLGC; disulfide 17-33)”, the BV/TV entry (4 weeks, 1 and 10 nmol/day) was “dose dependent manner”.

For the substance “Preptin D10: SEQ ID NO: 3, Preptin conjugated with 10 aspartate acids (HDVSTSQAVLPDDFPRYDDDDDDDDDD; Preptin D10)”, under setting [1], the “BV (bone volume)” value is “dose dependent manner”, the BV/TV result is given as “dose dependent manner” and the TbTh result is given as “dose dependent manner”.

Regarding “pBMP9 D10: SEQ ID NO: 6, peptide from knuckle epitope of human BMP-9 targeted with D10 (CGGKVGKACCVPTKLSPISVLYK[mp4″]DDDDDDDDDD; cysteine pairing not given here)”, under setting [2], the “BV (bone volume)” value is reported as “dose dependent manner” and the BV/TV entry is on record as “dose dependent manner”.

Take “Ghrelin-D10: SEQ ID NO: 5, Ghrelin D10 with Ser-3 replaced with diaminopropionic acid (HG[Dap]FLSPEHQKAQQRKESKKPPAKLQPRDDDDDDDDDD; ends and bridges not checked)”: under setting [2], the BV/TV entry was “dose dependent manner”.

Turning to “VIP D10: SEQ ID NO: 8, Vasoactive intestinal peptide conjugated with D10 (HHSDAVFTDNYTRLRKQMAVKKYLNSILNDDDDDDDDDD; Vasoactive intestinal peptide with D10 (VIP D10))”, where the note is “4 weeks, 1 nmol/day”, the BV/TV result was “healing was reflected as BV/TV” and the TbTh entry is listed as “healing was reflected”.

As to “P4 D10: SEQ ID NO: 10, P4 (knuckle epitope fragment of hBMP-2) conjugated with 10 aspartate acids (HKIPKASSVPTELSAISTLYLDDDDDDDDDD; P4 D10-a BMP2 fragment)”, the “BV (bone volume)” value (4 weeks, 1 nmol/day) is reported as “healing was reflected”. For the setting “4 weeks, 1 and 10 nmol/day”, the BV/TV entry is listed as “dose dependent manner”.

As for “MGF D10: SEQ ID NO: 11, Mechano-growth factor with 10 aspartate acids: DDDDDDDDDDYQPPSTNKNTKSQRRKGSTFEEHK (Mechano-growth factor (MGF) D10, an IGF-I fragment)”, the BV/TV result (4 weeks, 1 and 10 nmol/day) is on record as “dose dependent manner”.

Consider “CBM D10: SEQ ID NO: 9, collagen binding motif of osteopontin conjugated with 10 aspartate acids”, for which the BV/TV entry (3 weeks, 0.1, 1 and 10 nmol daily s.c.) is reported as “dose dependent manner”.
